According to patent US6800642B2, “Antipsychotic aminomethyl derivatives of 7,8-dihydro-2,6,9-trioxa-3-aza-cyclopenta[a]naphthalene” (Wyeth, priority 2001, dated 2004):
Where a name gives a salt, the structure may show the parent alone.

How the values were obtained:
dopamine D2 receptor = target: T1, dopamine D2 receptor (Rattus norvegicus, UniProt P61169); experiment: Dopamine D2 receptor affinity, 3H-quinpirole binding in homogenized rat striatal brain tissue
T1 construct: from tissue; host or cells: rat striatal brain tissue homogenate
T1 sequence (P61169 whole entry): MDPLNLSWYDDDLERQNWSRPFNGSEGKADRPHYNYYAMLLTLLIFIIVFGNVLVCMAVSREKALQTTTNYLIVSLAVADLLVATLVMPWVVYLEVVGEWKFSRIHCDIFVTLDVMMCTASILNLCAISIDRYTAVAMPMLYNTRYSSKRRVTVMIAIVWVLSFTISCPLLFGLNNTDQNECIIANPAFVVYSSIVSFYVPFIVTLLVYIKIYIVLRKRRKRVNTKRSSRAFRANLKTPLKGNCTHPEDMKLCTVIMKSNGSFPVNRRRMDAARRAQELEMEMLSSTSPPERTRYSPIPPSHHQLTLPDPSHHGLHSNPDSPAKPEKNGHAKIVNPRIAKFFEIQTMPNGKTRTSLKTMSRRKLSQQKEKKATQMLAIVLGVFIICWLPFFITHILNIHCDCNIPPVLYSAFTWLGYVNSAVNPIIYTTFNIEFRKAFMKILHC
Method: Affinity for the dopamine D2 receptor was established by a modification of the standard experimental test procedure of Seemen and Schaus, European Journal of Pharmacology 203:105-109, 1991, wherein homogenized rat striatal brain tissue is incubated with ^3H-quinpirole and various concentrations of test compound, filtered and washed and counted in a Betaplate scintillation counter.

dopamine receptors = experiment: Reduction of mouse locomotor activity (functional antagonism of dopamine receptors in vivo); details: sc; male CF-1 mice; horizontal activity counts 10 to 20 minutes after dosing
Method: The antipsychotic activity of the compounds of the invention was established by a determination of functional antagonism of dopamine receptors in vivo, specifically the compounds' ability to reduce mouse locomotor activity according to the method of Martin and Bendensky, J. Pharmacol. Exp. Therap. 229:706-711, 1984, in which mice (male, CF-1, Charles River, 20-30 g) were injected with vehicle or various doses of each drug and locomotor activity was measured for 30 minutes using automated infrared activity monitors (Omnitech—8×8 inch open field) located in a darkened room. ED50's were calculated from the horizontal activity counts collected from 10 to 20 minutes after dosing using a nonlinear regression analysis with inverse prediction.

## c1ccc(CNCC2COc3ccc4nocc4c3O2)cc1 (stereo not drawn) (as salt: fumarate) [Example 1, Benzyl-(-7,8-dihydro-2,6,9-trioxa-3-aza-cyclopenta[a]naphthalen-8-ylmethyl)-amine]
other
  melting point: 180 °C

## c1ccc2c(c1)CCN(CC1COc3ccc4nocc4c3O1)C2 (stereo not drawn) [Example 2, 8-(3,4-Dihydro-1H-isoquinolin-2-ylmethyl)-7,8-dihydro-2,6,9-trioxa-3-aza-cyclopenta[a]naphthalene]
Dopamine D2 receptor
  IC50: 58.8 nM

## O=C(c1ccc(F)cc1)C1CCN(CC2COc3ccc4nocc4c3O2)CC1 (stereo not drawn) [Example 5, [1-(7,8-Dihydro-2,6,9-trioxa-3-aza-cyclopenta[a]naphthalen-8-ylmethyl)-piperidin-4-yl]-(4-fluoro-phenyl)-methanone]
Dopamine D2 receptor
  IC50: 32.4 nM

## c1ccc2c(c1)CCN(CC1COc3ccc4nocc4c3O1)C2 (stereo not drawn) (as salt: fumarate) [Example 2, 8-(3,4-Dihydro-1H-isoquinolin-2-ylmethyl)-7,8-dihydro-2,6,9-trioxa-3-aza-cyclopenta[a]naphthalene]
other
  melting point: 175 to 176 °C

## c1ccc(CNCC2COc3ccc4nocc4c3O2)cc1 (stereo not drawn) [Example 1, Benzyl-(-7,8-dihydro-2,6,9-trioxa-3-aza-cyclopenta[a]naphthalen-8-ylmethyl)-amine]
Dopamine D2 receptor
  IC50: 8.05 nM

## Fc1ccc2[nH]cc(CC3CCN(CC4COc5ccc6nocc6c5O4)CC3)c2c1 (stereo not drawn) (as salt: oxalate) [Example 4, 8-[4-(5-Fluoro-1H-indol-3-ylmethyl)-piperidin-1-ylmethyl]-7,8-dihydro-2,6,9-trioxa-3-aza-cyclopenta[a]naphthalene]
other
  melting point: 202 to 205 °C

## c1ccc2c(CCCNCC3COc4ccc5nocc5c4O3)c[nH]c2c1 (stereo not drawn) [Example 6, 2,3-Dihydro-N-[3-(1H-indol-3-yl)propyl]-1,4-dioxino[2,3-e][2,1]benzisoxazole-2-methanamine]
Dopamine D2 receptor
  IC50: 4.8 nM

## c1ccc2c(CCCNCC3COc4ccc5nocc5c4O3)c[nH]c2c1 (stereo not drawn) (as salt: oxalate) [Example 6, 2,3-Dihydro-N-[3-(1H-indol-3-yl)propyl]-1,4-dioxino[2,3-e][2,1]benzisoxazole-2-methanamine]
other
  melting point: 230 °C

## c1ccc(CCCCNCC2COc3ccc4nocc4c3O2)cc1 (stereo not drawn) (as salt: fumarate) (hydrate or solvate) [Example 7, (7,8-Dihydro-2,6,9-trioxa-3-aza-cyclopenta[a]naphthalen-8-ylmethyl)-(4-phenyl-butyl)-amine]
other
  melting point: 172 to 174 °C

## C1=C(c2c[nH]c3ccccc23)CCN(CC2COc3ccc4nocc4c3O2)C1 (stereo not drawn) [Example 3, 8-[4-(1H-Indol-3-yl)-3,6-dihydro-2H-pyridin-1-ylmethyl]-7,8-dihydro-2,6,9-trioxa-3-aza-cyclopenta[a]naphthalene]
Dopamine receptors
  ED50 for reduction of mouse locomotor activity: ≥ 50 mg/kg
Dopamine D2 receptor
  IC50: 350 nM
other
  melting point: 110 °C

## Fc1ccc2[nH]cc(CC3CCN(CC4COc5ccc6nocc6c5O4)CC3)c2c1 (stereo not drawn) [Example 4, 8-[4-(5-Fluoro-1H-indol-3-ylmethyl)-piperidin-1-ylmethyl]-7,8-dihydro-2,6,9-trioxa-3-aza-cyclopenta[a]naphthalene]
Dopamine D2 receptor
  IC50: 36.7 nM

## c1ccc(CCCCNCC2COc3ccc4nocc4c3O2)cc1 (stereo not drawn) [Example 7, (7,8-Dihydro-2,6,9-trioxa-3-aza-cyclopenta[a]naphthalen-8-ylmethyl)-(4-phenyl-butyl)-amine]
Dopamine D2 receptor
  IC50: 4.1 nM

## O=C(c1ccc(F)cc1)C1CCN(CC2COc3ccc4nocc4c3O2)CC1 (stereo not drawn) (as salt: fumarate) [Example 5, [1-(7,8-Dihydro-2,6,9-trioxa-3-aza-cyclopenta[a]naphthalen-8-ylmethyl)-piperidin-4-yl]-(4-fluoro-phenyl)-methanone]
other
  melting point: 204 to 206 °C
